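A five-concentration, 48-hour dose response in 96-well plates underlies each endpoint, interpolated linearly between surrounding concentrations. GI50 marks 50% less growth.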 Calls of active or inactive are those of the source. Cut-off read from the data, not from the text of the source: active = GI50 up to about 1.1 µM and inactive = higher.
Assays:
Assay in all cases: NCI-60 cell line screen, 48 h
DMS-273 = system: DMS-273
CAKI-1 = system: CAKI-1
DU-145 = system: DU-145
KM12 = system: KM12
PC-3 = system: PC-3
XF498 = system: XF498
MDA-MB-435 = system: MDA-MB-435
IGROV-1 = system: IGROV-1
NCI-H226 = system: NCI-H226
TK-10 = system: TK-10
SNB-19 = system: SNB-19
OVCAR-3 = system: OVCAR-3
SF-268 = system: SF-268
NCI-H522 = system: NCI-H522
MDA-MB-231 = system: MDA-MB-231
RPMI-8226 = system: RPMI-8226
K562 = system: K562
NCI-H460 = system: NCI-H460
OVCAR-5 = system: OVCAR-5
786-0 = system: 786-0

Measured: GI50

COc1cc2nncc(SCc3ccc(Cl)c(Cl)c3)c2cc1OC
inactive: DMS-273 > 100 µM | CAKI-1 > 73.8 µM | DU-145 > 100 µM | KM12 > 62.7 µM | PC-3 > 100 µM | XF498 21.5 µM | MDA-MB-435 > 100 µM | IGROV-1 99.3 µM | NCI-H226 > 100 µM | TK-10 82.4 µM | SNB-19 45.9 µM | OVCAR-3 > 100 µM | SF-268 > 69.5 µM | NCI-H522 23.2 µM | MDA-MB-231 > 100 µM | RPMI-8226 > 100 µM | K562 > 94.8 µM | NCI-H460 > 72.3 µM | OVCAR-5 98.4 µM | 786-0 42.8 µM
